The results in this text go back to US8158560B2, “Insecticidal arylpyrroline compounds” (Bayer CropScience AG, priority 2009, dated 2012).

Holding throughout (format): in vivo
One assay has as its system Aulacophora femoralis. Description: Biological Test Example 3: test against cucurbit leaf beetle (Aulacophora femoralis), cucumber leaf dip. As to conditions: foliar, 168 h, active compound concentration 100 ppm, second instar larvae, after 7 days, read-out: insecticidal activity. How it is done:
(§1) Unless not mentioned otherwise, the test solutions were prepared as follows:
(§2) Containing as solvent: Dimethylformamide, 3 parts by weight; and as emulsifier: Polyoxyethylene alkyl phenyl ether, 1 part by weight
(§3) To prepare the test solution, 1 part by weight of an active compound is mixed with the above-mentioned amount of solvent containing the above-mentioned amount of emulsifier, and the mixture is diluted with water to the desired concentration.
Test Against Cucurbit Leaf Beetle (Aulacophora femoralis)
Leaves of cucumber were immersed in the test solution at the appropriate concentration, and the leaves were dried in air. The leaves were then put in a plastic cup containing sterilized black soil and five Aulacophora femoralis at second instar larvae were released in the cup. The cups were placed in a temperature-controlled chamber at 25° C. After 7 days, the number of dead larvae was counted, and the insecticidal activity was calculated. An insecticidal activity of 100% means that all larvae were killed, whereas an insecticidal activity of 0% means that no larva was killed.

Another assay relates to Spodoptera litura. The assay can be described thus: Biological Test Example 1: test against tobacco cutworm (Spodoptera litura) larvae, sweet potato leaf dip. As to conditions: foliar, 168 h, active compound concentration 100 ppm, third instar larvae, after 7 days, read-out: insecticidal activity. How it is done:
as §1, §2, §3
Test Against Tobacco Cutworm (Spodoptera litura) Larvae
Leaves of sweet potato were immersed in the test solution at the appropriate concentration, and the leaves were dried in air. The leaves were then placed in a petri dish having a diameter of 9 cm, and ten Spodoptera litura at third instar larvae were released therein. The petri dishes were placed in a temperature-controlled chamber at 25° C.
After 2 days and 4 days more sweet potato leaves were added. After 7 days, the number of dead larvae was counted and the insecticidal activity was calculated. An insecticidal activity of 100% means that all larvae were killed, whereas an insecticidal activity of 0% means that no larva was killed. In the current test, the results of two petri dishes for each treatment were averaged.

Assay [1] has as its system organic phosphorus agent- and carbamate agent-resistant Myzus persicae. Description: Biological Test Example 4: test against organic phosphorus agent- and carbamate agent-resistant green peach aphid (Myzus persicae), spray on eggplant. Particulars: active compound concentration 100 ppm; after 7 days. The procedure: as §1, §2, §3
Test Against Organic Phosphorus Agent- and Carbamate Agent Resistant Green Peach Aphid (Myzus persicae)
50 to 100 head of organic phosphorous agent- and carbamate agent-resistant Myzus persicae were inoculated to leaves of eggplant at two-leaf stage, planted in a pot of 6 cm in diameter. After one day, test solution at the appropriate concentration was sprayed thereon in a sufficient amount using a spray gun. After the spraying, the plant pot was placed inside a greenhouse, and after 7 days, the insecticidal rate was calculated.
An insecticidal activity of 100% means that all aphids were killed, whereas an insecticidal activity of 0% means that no aphid was killed.

For another assay, the system named is Tetranychus urticae. The assay can be described thus: Biological Test Example 2: test against two-spotted spider mite (Tetranychus urticae), spray on kidney bean. As to conditions: 168 h, active compound concentration 100 ppm, adult mites, after 7 days, read-out: acaricidal activity. How it is done: as §1, §2, §3
Test Against Two-Spotted Spider Mite (Tetranvchus urticae)
50 to 100 adult mites of Tetranychus urticae were inoculated to leaves of kidney bean at two-leaf stage planted in a pot of 6 cm in diameter. After one day, test solution at the appropriate concentration was sprayed thereon in a sufficient amount using a spray gun. After the spraying, the plant pot was placed inside a greenhouse, and after 7 days, the acaricidal activity was calculated. An acaricidal activity of 100% means that all mites were killed, whereas an acaricidal activity of 0% means that no mite was killed.

Assay [2] relates to Spodoptera litura L2 stage. The assay can be described thus: Spodoptera litura root soaking test (PRODLI). Particulars: 20 ppm, 4 dat. How it is done:
Spodoptera litura—Root Soaking Test (PRODLI)
Insect: Spodoptera litura L2 stage;
Material: Culture media bottles for hydroponics: Plastic (A-PET) cups for test, square type;
Plant: Broccoli 5 leaf stage (ca. 12 cm high), soil around the roots was washed off just before the test;
Solvent pre-mixture “Sorpol SD” for root soaking test;
Sorpol SD: Sorpol BDB:Dimethylformamide=3:3:140
Procedure: Test solutions are prepared in the bottles at the appropriate concentration. The test plant root is dipped into the test solution in the bottle and kept in a test room. After 3 days, ⅓ part of the leaves of the plants is cut and put into the A-PET cup.
Into each test cup five larvae L2 are released, the cup is covered with a lid and stored at 25° C. and at a relative humidity of 50-60% and under 16L8D lighting conditions.
After the specified period of time the mortality in % is determined and the rate of death is calculated.

Take `O=C(NC1CSC1)c1ccc(C2=NCC(c3cc(Cl)c(Cl)c(Cl)c3)(C(F)(F)F)C2)cc1Br` (centres unmarked) [Compound 1-4, 2-Bromo-N-(thietan-3-yl)-4-[3-(3,4,5-trichlorophenyl)-3-(trifluoromethyl)-3,4-dihydro-2H-pyrrol-5-yl]benzamide]: the pest or weed control at 100 ppm in the assay on Aulacophora femoralis and in the assay with Spodoptera litura was 100% throughout.

Take `O=C(NC1CSC1)c1ccc(C2=NCC(c3cc(Cl)c(Cl)c(Cl)c3)(C(F)(F)F)C2)cc1C(F)(F)F` (centres unmarked) [Compound 1-7, N-(thietan-3-yl)-4-[3-(3,4,5-trichlorophenyl)-3-(trifluoromethyl)-3,4-dihydro-2H-pyrrol-5-yl]-2-(trifluoromethyl)benzamide]: the pest or weed control at 100 ppm with Aulacophora femoralis, with Spodoptera litura and in the assay on Tetranychus urticae was 100% each time. In assay [1], this compound came in with an insecticidal activity of 100%.

For `O=C(NC1C[S+]([O-])C1)c1ccc(C2=NCC(c3cc(Cl)c(Cl)c(Cl)c3)(C(F)(F)F)C2)cc1C(F)(F)F` (centres unmarked) [Compound 1-8, N-(1-Oxidothietan-3-yl)-4-[3-(3,4,5-trichlorophenyl)-3-(trifluoromethyl)-3,4-dihydro-2H-pyrrol-5-yl]-2-(trifluoromethyl)benzamide], the pest or weed control at 100 ppm in the assay with Aulacophora femoralis, in the assay on Spodoptera litura and with Tetranychus urticae was 100% each time.

With `O=C(NC1CS(=O)(=O)C1)c1ccc(C2=NCC(c3cc(Cl)c(Cl)c(Cl)c3)(C(F)(F)F)C2)cc1C(F)(F)F` (centres unmarked) [Compound 1-9, N-(1,1-Dioxidothietan-3-yl)-4-[3-(3,4,5-trichlorophenyl)-3-(trifluoromethyl)-3,4-dihydro-2H-pyrrol-5-yl]-2-(trifluoromethyl)benzamide], the pest or weed control at 100 ppm in the assay on Aulacophora femoralis, with Spodoptera litura and in the assay with Tetranychus urticae was 100% throughout. In assay [1], this compound yielded an insecticidal activity of 100%.

With `Cc1cc(C2=NCC(c3cc(Cl)c(Cl)c(Cl)c3)(C(F)(F)F)C2)ccc1C(=O)NC1CSC1` (centres unmarked) [Compound 1-10, 2-methyl-N-(thietan-3-yl)-4-[3-(3,4,5-trichlorophenyl)-3-(trifluoromethyl)-3,4-dihydro-2H-pyrrol-5-yl]benzamide], the pest or weed control at 100 ppm in the assay on Aulacophora femoralis, with Spodoptera litura and with Tetranychus urticae was 100% in each case. In assay [1], this compound registered an insecticidal activity of 100%.

Turning to `Cc1cc(C2=NCC(c3cc(Cl)c(Cl)c(Cl)c3)(C(F)(F)F)C2)ccc1C(=O)NC1C[S+]([O-])C1` (centres unmarked) [Compound 1-11, 2-Methyl-N-(1-oxidothietan-3-yl)-4-[3-(3,4,5-trichlorophenyl)-3-(trifluoromethyl)-3,4-dihydro-2H-pyrrol-5-yl]benzamide], the pest or weed control at 100 ppm with Aulacophora femoralis, in the assay with Spodoptera litura and in the assay with Tetranychus urticae was 100% throughout.

For `Cc1cc(C2=NCC(c3cc(Cl)c(Cl)c(Cl)c3)(C(F)(F)F)C2)ccc1C(=O)NC1CS(=O)(=O)C1` (centres unmarked) [Compound 1-12, N-(1,1-Dioxidothietan-3-yl)-2-methyl-4-[3-(3,4,5-trichlorophenyl)-3-(trifluoromethyl)-3,4-dihydro-2H-pyrrol-5-yl]benzamide], the pest or weed control at 100 ppm in the assay on Aulacophora femoralis, in the assay on Spodoptera litura and in the assay with Tetranychus urticae was 100% each time. The compound also returned an insecticidal activity in assay [1] of 100%.

As to `O=C(NC1CSC1)c1ccc(C2=NCC(c3cc(C(F)(F)F)cc(C(F)(F)F)c3)(C(F)(F)F)C2)cc1C(F)(F)F` (centres unmarked) [Compound 1-16, 4-{3-[3,5-Bis(trifluoromethyl)phenyl}-3-(trifluoromethyl)-3,4-dihydro-2H-pyrrol-5-yl]-N-(thietan-3-yl)-2-(trifluoromethyl)benzamide], the pest or weed control at 100 ppm in the assay with Aulacophora femoralis, in the assay with Spodoptera litura and in the assay on Tetranychus urticae was 100% in each case. The compound also yielded an insecticidal activity in assay [1] of 100%.

Turning to `Cc1cc(C2=NCC(c3cc(C(F)(F)F)cc(C(F)(F)F)c3)(C(F)(F)F)C2)ccc1C(=O)NC1CSC1` (centres unmarked) [Compound 1-19, 4-{3-[3,5-Bis(trifluoromethyl)phenyl]-3-(trifluoromethyl)-3,4-dihydro-2H-pyrrol-5-yl}-2-methyl-N-(thietan-3-yl)benzamide], the pest or weed control at 100 ppm in the assay on Aulacophora femoralis, with Spodoptera litura and in the assay on Tetranychus urticae was 100% in each case. In assay [1], the insecticidal activity is 100%.

In the case of `Cc1cc(C2=NCC(c3cc(C(F)(F)F)cc(C(F)(F)F)c3)(C(F)(F)F)C2)ccc1C(=O)NC1C[S+]([O-])C1` (centres unmarked) [Compound 1-20, 4-{3-[3,5-Bis(trifluoromethyl)phenyl]-3-(trifluoromethyl)-3,4-dihydro-2H-pyrrol-5-yl}-2-methyl-N-(1-oxidothietan-3-yl)benzamide], the pest or weed control at 100 ppm with Aulacophora femoralis, with Spodoptera litura and in the assay with Tetranychus urticae was 100% in each case.

Turning to `O=C(NC1CSC1)c1ccc(C2=NCC(c3cc(C(F)(F)F)cc(C(F)(F)F)c3)(C(F)(F)F)C2)cc1Br` (centres unmarked) [Compound 1-104, 4-{3-[3,5-Bis(trifluoromethyl)phenyl]-3-(trifluoromethyl)-3,4-dihydro-2H-pyrrol-5-yl}-2-bromo-N-(thietan-3-yl) benzamide], the pest or weed control at 100 ppm with Aulacophora femoralis and with Spodoptera litura was 100% in each case.

In the case of `O=C(CNC(=O)c1ccc(C2=NCC(c3cc(Cl)c(Cl)c(Cl)c3)(C(F)(F)F)C2)cc1C(F)(F)F)NC1CSC1` (centres unmarked) [Compound 3-7], the pest or weed control at 100 ppm with Aulacophora femoralis, in the assay on Spodoptera litura and in the assay on Tetranychus urticae was 100% in each case.

`O=C(CNC(=O)c1ccc(C2=NCC(c3cc(C(F)(F)F)cc(C(F)(F)F)c3)(C(F)(F)F)C2)cc1C(F)(F)F)NC1CSC1` (centres unmarked) [Compound 3-19, 4-{3-[3,5-Bis(trifluoromethyl)phenyl]-3-(trifluoromethyl)-3,4-dihydro-2H-pyrrol-5-yl}-N-[2-oxo-2-(thietan-3-ylamino)ethyl]-2-(trifluoromethyl)benzamide]: the pest or weed control at 100 ppm with Aulacophora femoralis and in the assay on Spodoptera litura was 100% throughout.

On to `Cc1cc(C2=NCC(c3cc(Cl)cc(Cl)c3)(C(F)(F)F)C2)ccc1C(=O)NC1CS(=O)(=O)C1` (centres unmarked) [Compound T-1], for which, in assay [2], the “Efficacy/day(s) of treatment” value was 100%/4 dat.

On to `Cc1cc(C2=NOC(c3cc(Cl)cc(Cl)c3)(C(F)(F)F)C2)ccc1C(=O)NC1CS(=O)(=O)C1` (centres unmarked) [ExNo A10 of WO 2009/080250], for which the “Efficacy/day(s) of treatment” value in assay [2] is on record as 0%/4 dat.
